Data as given in US20260242373A1, “NBD1 MODULATORS AND METHODS OF USING THE SAME” (Sionna Therapeutics Inc., priority 2023, published 2026).

Experiments:
[1] = tested on: Primary human bronchial epithelial cells from a ΔF508 homozygous CF donor (CF-HBE cells); test: TECC24 recording of CFTR-mediated transepithelial chloride transport, AUC fold over DMSO; assay type: cell-based; settings: 48 hours incubation, ratio of test agent AUC to vehicle AUC of forskolin-stimulated IEQ
Method: The effects of a test agent on CFTR-mediated transepithelial chloride transport was measured using TECC24 recording analysis. Test agents were solubilized in DMSO. Solubilized test agents were mixed with incubation medium containing DMEM/F12, Ultroser G (2%; Crescent Chemical, catalog #67042), Hyclone Fetal Clone 11 (2%; GE Healthcare, catalog #SH30066.02), bovine brain extract (0.25%; Lonza, catalog #CC-4098), insulin (2.5 μg/mL), IL-13 (10 ng/mL), hydrocortisone (20 nM), transferrin ([…]), triiodothyronine (500 nM), ethanolamine (250 nM), epinephrine (1.5 μM), phosphoethanolamine (250 nM), and retinoic acid (10 nM). Primary human bronchial epithelial cells from a ΔF508 homozygous CF donor (CF-HBE cells; from University of North Carolina Cystic Fibrosis Tissue Procurement Center), grown on Transwell HTS 24-well cell culture inserts (Costar, catalog #3378), were exposed to test agents or controls dissolved in incubation medium. The CF-HBE cells were cultured at 36.5° C. for 48 hours before TECC24 recordings were performed in the presence or absence of test agent, a positive control or vehicle (DMSO).
Following incubation, the transwell cell culture inserts containing the test agent or control-treated CF-HBE cells were loaded onto a TECC24 apparatus (TECC v7 or MTECC v2; EP Design) to record the transepithelial voltage (VT) and resistance (TEER) using 4 AgCl electrodes per well configured in current-clamp mode. The apical and basolateral bath solutions both contained (in mM) 140 NaCl, 5 KCl, 2 CaCl2), 1 MgCl2, 10 Hepes, and 10 glucose (adjusted to pH 7.4 with NaOH). To inhibit basal Na+ absorption, the ENaC inhibitor benzamil (10 μM) was added to the bath. Then, the adenylate cyclase activator, forskolin ([…]), was added to the bath to activate CFTR. The forskolin-stimulated Cl— transport was halted by addition of CFTR inhibitor-172 ([…]) to the bath at the end of the experiment to confirm specificity. […] Efficacy is expressed as the ratio of the test agent AUC divided by vehicle AUC. […]

NBD1 = test: Aggregation analysis of NBD1 thermal stability by differential static light scattering (DSLS); assay type: binding, Human; settings: 100 μM compound; ΔTagg versus DMSO control
Method: Purified recombinant NBD1 was produced using previously described methods (A. Schmidt, J. L. Mendoza, P. J. Thomas (2011) Biochemical and Biophysical Approaches to Probe CFTR Structure (365-376) M. D. Amaral, K. Kunzelmann (eds.), Cystic Fibrosis, Methods in Molecular Biology 741, Springer Science+Business Media). The effect of test compounds on thermal stability of NBD1 was evaluated by differential static light scattering (DSLS) using the Harbinger Stargazer-384 instrument (Epiphyte Three, Toronto, Canada). Test compounds were dissolved and diluted to desired concentrations in 100% DMSO. The compounds or DMSO controls (100 nL) were stamped into wells of a […] low volume optical plate (Corning Inc., Corning, NY) using the Echo 555 acoustic liquid handler (Labcyte Inc., San Jose, CA).
NBD1 protein was diluted to 0.2 mg/ml in S200 buffer (50 mM Tris-HCl, 150 mM NaCl, 5 mM MgCl2, 2 mM ATP, 2 mM DTT, pH7.6) containing 1% glycerol. 10 uL of protein solution was aliquoted into the 384-well plate harboring the test compounds and 10 uL mineral oil was overlayed onto the protein solution, using the epMotion robotic liquid handler (Eppendorf North America, Hauppauge, NY). After placing into the Stargazer instrument, the plate was heated at 1° C. per minute to 70° C. Images were captured from 25° C. to 70° C. every 0.5° C. At the end of the experiment run, instrument software integrated image files and analyzed data automatically. A […] regression curve was generated for each well, representing the increase in light scattering over time. A temperature of aggregation (Tagg) was calculated based on the inflection point of the curve. To better compare data across experiments the average Tagg for DMSO control wells was calculated and subtracted from values for wells containing compounds to obtain a “ΔTagg” value. These ΔTagg values reflect stabilizing efficacy of the compounds.

C[C@@H](c1nc(-c2cc(Oc3c(F)cc4[nH]ccc4c3F)ccc2F)n(C)n1)c1ccc(CCC(=O)O)s1 (single isomer, unassigned) [Compound 44]
TECC24 @ 10 uM over DMSO [1]: C (“C” refers to AUC @ 10 uM <=4) | DSLS NBD1/3D Human Stability delta-T (° C.) @ 100 (μM) (NBD1): B (B: 4-8° C.)

Cc1c(Oc2ccc(F)c(-c3nc(Cc4csc(CCC(=O)O)c4)c[nH]3)c2)c(F)cc2[nH]ccc12 [Compound 4, 3-(4-((2-(2-fluoro-5-((6-fluoro-4-methyl-1H-indol-5-yl)oxy)phenyl)-1H-imidazol-4-yl)methyl)thiophen-2-yl)propanoic acid]
TECC24 @ 10 uM over DMSO [1]: C (“C” refers to AUC @ 10 uM <=4) | DSLS NBD1/3D Human Stability delta-T (° C.) @ 100 (μM) (NBD1): B (B: 4-8° C.)

c1cc(Oc2ccc3[nH]ccc3c2)cc(-c2nnc(Cc3cccs3)[nH]2)c1 [Compound 10, 5-(3-(5-(thiophen-2-ylmethyl)-4H-1,2,4-triazol-3-yl)phenoxy)-1H-indole]
TECC24 @ 10 uM over DMSO [1]: C (“C” refers to AUC @ 10 uM <=4) | DSLS NBD1/3D Human Stability delta-T (° C.) @ 100 (μM) (NBD1): C (C: ≤4° C.)

O=C(O)CCc1cccc(Cc2cc(NCCO)n(-c3cc(Oc4c(F)cc5[nH]ccc5c4F)ccc3F)n2)c1 [Compound 56, 3-(3-((1-(5-((4,6-difluoro-1H-indol-5-yl)oxy)-2-fluorophenyl)-5-((2-hydroxyethyl)amino)-1H-pyrazol-3-yl)methyl)phenyl) propanoic acid]
DSLS NBD1/3D Human Stability delta-T (° C.) @ 100 (μM) (NBD1): B (B: 4-8° C.)

O=C(O)CCc1cccc(Cc2cc(N3CCCCC3=O)n(-c3cc(Oc4c(F)cc5[nH]ccc5c4F)ccc3F)n2)c1 [Compound 57, 3-[3-[[1-[5-[(4,6-difluoro-1H-indol-5-yl)oxy]-2-fluoro-phenyl]-5-(2-oxo-1-piperidyl)pyrazol-3-yl]methyl]phenyl]propanoic acid]
DSLS NBD1/3D Human Stability delta-T (° C.) @ 100 (μM) (NBD1): C (C: ≤4° C.)

O=C(O)CCc1cccc(Cc2cc(N3CCCC3=O)n(-c3cc(Oc4c(F)cc5[nH]ccc5c4F)ccc3F)n2)c1 [Compound 58, 3-[3-[[1-[5-[(4,6-difluoro-1H-indol-5-yl)oxy]-2-fluoro-phenyl]-5-(2-oxopyrrolidin-1-yl)pyrazol-3-yl]methyl]phenyl]propanoic acid]
DSLS NBD1/3D Human Stability delta-T (° C.) @ 100 (μM) (NBD1): C (C: ≤4° C.)

CC(c1cccc(CCC(=O)O)c1F)c1nn(-c2cc(Oc3c(F)cc4[nH]ccc4c3F)ccc2F)c2c1CCC2 (stereo not shown) [Compound 59, 3-[3-[1-[1-[5-[(4,6-difluoro-1H-indol-5-yl)oxy]-2-fluoro-phenyl]-5,6-dihydro-4H-cyclopenta[c]pyrazol-3-yl]ethyl]-2-fluoro-phenyl]propanoic acid]
DSLS NBD1/3D Human Stability delta-T (° C.) @ 100 (μM) (NBD1): C (C: ≤4° C.)
